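Five concentrations, 48 hours, 96-well plates. GI50: concentration for 50% inhibition of growth. TGI: total growth inhibition.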

The results in this text go back to PubChem BioAssay (NCI).

Among the test systems are SF-295 CNS; DU-145 prostate; OVCAR-3 ovarian; SF-539 CNS; K-562 leukemia; RXF 393 renal; HCT-15 colon; NCI-H460 lung; SW-620 colon; SNB-75 CNS.
Test in all cases: DTP human tumour cell line panel, 48 h

With `O=C1c2ccccc2C(=O)c2sc(Nc3ccccc3Cl)nc21`, the TGI with SF-295 CNS amounted to 30.1 µM; in the experiment with DU-145 prostate, 31.4 µM; in the experiment with OVCAR-3 ovarian, 25.8 µM; with SF-539 CNS it was 31.4 µM; in the experiment with K-562 leukemia it was 6.8 µM; in the experiment on RXF 393 renal it was 30 µM. In addition, the TGI came out at 29.6 µM in the experiment with HCT-15 colon, 29.6 µM in the experiment with NCI-H460 lung, 8.97 µM in the experiment with SW-620 colon and 27.1 µM in the experiment on SNB-75 CNS.
For `Cc1cc(Nc2cc(N3CCN(C)CC3)nc(Sc3ccc(NC(=O)C4CC4)cc3)n2)n[nH]1`, the GI50 in the experiment on SF-295 CNS is 1.28 µM; with DU-145 prostate, above 10 µM; in the experiment with OVCAR-3 ovarian, 3.46 µM; in the experiment on SF-539 CNS it was 1.92 µM; in the experiment on K-562 leukemia it was 0.232 µM; with RXF 393 renal, 2.17 µM. The GI50 in the experiment on HCT-15 colon is 5.38 µM; with NCI-H460 lung, 0.537 µM; in the experiment with SW-620 colon, 1.08 µM; with SNB-75 CNS, 2.71 µM. The TGI in the experiment with SF-295 CNS, in the experiment with DU-145 prostate, in the experiment with OVCAR-3 ovarian, with SF-539 CNS, with K-562 leukemia and in the experiment on RXF 393 renal was above 10 µM in each case. Also, the TGI with HCT-15 colon, in the experiment on NCI-H460 lung, in the experiment with SW-620 colon and in the experiment on SNB-75 CNS was above 10 µM each time.
Turning to `Cc1ccc(NCCN(C)C)c2c(=O)c3ccccc3sc12`, the GI50 was 1.88 µM with SF-295 CNS; 2.02 µM in the experiment with DU-145 prostate; 1.86 µM in the experiment on OVCAR-3 ovarian; 1.59 µM in the experiment on SF-539 CNS; 1.6 µM with K-562 leukemia; 1.96 µM with RXF 393 renal. Besides, the GI50 with HCT-15 colon is 2.21 µM; in the experiment on NCI-H460 lung, 1.41 µM; in the experiment on SW-620 colon, 1.46 µM; in the experiment on SNB-75 CNS, 1.49 µM. Further, the TGI turned out to be 4.46 µM in the experiment with SF-295 CNS; 4.63 µM in the experiment with DU-145 prostate; 3.73 µM in the experiment on OVCAR-3 ovarian; 2.97 µM in the experiment on SF-539 CNS; 3.56 µM with K-562 leukemia; 4.59 µM in the experiment on RXF 393 renal. The TGI with HCT-15 colon is 6.53 µM; in the experiment on NCI-H460 lung it was 3.01 µM; in the experiment on SW-620 colon it was 3.02 µM; in the experiment on SNB-75 CNS, 3.08 µM.
For the compound `NC(=Nc1ccc(N)cc1)C(N)=Nc1ccc(N)cc1`, the GI50 with SF-295 CNS was above 100 µM; with DU-145 prostate it was above 100 µM; in the experiment with OVCAR-3 ovarian it was 33.3 µM; with SF-539 CNS, 73.7 µM; in the experiment on K-562 leukemia, 81.8 µM; in the experiment with RXF 393 renal, above 100 µM. For the same compound, the GI50 was 42.6 µM in the experiment on HCT-15 colon, above 100 µM in the experiment on NCI-H460 lung, 64.1 µM in the experiment with SW-620 colon and above 100 µM with SNB-75 CNS. The TGI in the experiment with SF-295 CNS, with DU-145 prostate, with OVCAR-3 ovarian, with SF-539 CNS, in the experiment with K-562 leukemia and in the experiment with RXF 393 renal was above 100 µM in each case. Further, the TGI in the experiment with HCT-15 colon, in the experiment with NCI-H460 lung, in the experiment on SW-620 colon and with SNB-75 CNS was above 100 µM throughout.
For the compound `O=C(c1ccccc1)n1c(-c2ccccc2)cs/c1=N\S(=O)(=O)c1ccc(N2N=C3c4ccccc4CC3C2c2cccs2)cc1` (stereo not given), the GI50 in the experiment with SF-295 CNS was 37.1 µM; with DU-145 prostate it was 47 µM; with OVCAR-3 ovarian, 55.2 µM; in the experiment with SF-539 CNS it was 58.6 µM; in the experiment on K-562 leukemia, 27.6 µM; in the experiment with RXF 393 renal, 37.1 µM. Moreover, the GI50 in the experiment with HCT-15 colon is 61.4 µM; in the experiment on NCI-H460 lung it was above 100 µM; in the experiment with SW-620 colon it was 58.8 µM; in the experiment with SNB-75 CNS, above 100 µM. Also, the TGI with SF-295 CNS, in the experiment with DU-145 prostate, in the experiment on OVCAR-3 ovarian, in the experiment with SF-539 CNS, in the experiment with K-562 leukemia and in the experiment with RXF 393 renal was above 100 µM each time. Also, the TGI with HCT-15 colon, in the experiment with NCI-H460 lung, with SW-620 colon and with SNB-75 CNS was above 100 µM in each case.
On to `CN(C)c1ccc(/C=c2/c3ccccc3n3c2c2cc(F)ccc2[n+]3C)cc1`, for which the GI50 is 6.31 µM with SF-295 CNS; 5.07 µM with DU-145 prostate; 2.98 µM in the experiment with OVCAR-3 ovarian; 2.59 µM with SF-539 CNS; 1.48 µM in the experiment on K-562 leukemia; 5.91 µM with RXF 393 renal. Moreover, the GI50 was 18.8 µM with HCT-15 colon, 4.72 µM in the experiment with NCI-H460 lung, 3.17 µM in the experiment on SW-620 colon and 8.07 µM in the experiment on SNB-75 CNS. The TGI in the experiment on SF-295 CNS was 19.6 µM; with DU-145 prostate, 18.4 µM; in the experiment with OVCAR-3 ovarian, 12.5 µM; with SF-539 CNS, 7.49 µM; with K-562 leukemia, above 47.5 µM; in the experiment on RXF 393 renal, 21.8 µM. For the same compound, the TGI with HCT-15 colon is above 57.6 µM; with NCI-H460 lung, 26.6 µM; in the experiment with SW-620 colon, 15.2 µM; in the experiment with SNB-75 CNS it was 20.3 µM.
Turning to `COc1cc(C2C3=C(COC3=O)N(CCO)c3cc4c(cc32)OCO4)cc(OC)c1O` (stereo not given), the GI50 in the experiment with SF-295 CNS was 1.47 µM; in the experiment on DU-145 prostate, 1.58 µM; in the experiment with OVCAR-3 ovarian it was 0.982 µM; in the experiment on SF-539 CNS, 1.47 µM; with K-562 leukemia it was 1.49 µM; in the experiment with RXF 393 renal, 0.576 µM. For the same compound, the GI50 in the experiment on HCT-15 colon is 8.01 µM; with NCI-H460 lung it was 1.69 µM; in the experiment on SW-620 colon, 1.71 µM; in the experiment with SNB-75 CNS, 1.12 µM. The concentration for total growth inhibition (TGI) is above 14.6 µM with SF-295 CNS; 7.22 µM in the experiment on DU-145 prostate; 2.22 µM in the experiment on OVCAR-3 ovarian; above 13.6 µM with SF-539 CNS; above 50 µM in the experiment with K-562 leukemia; 2.11 µM in the experiment with RXF 393 renal. Besides, the TGI in the experiment on HCT-15 colon is above 50 µM; with NCI-H460 lung it was above 15.9 µM; in the experiment with SW-620 colon, above 50 µM; in the experiment on SNB-75 CNS, 3.51 µM.
For `Clc1ccccc1C(Nc1ncccn1)Nc1ncccn1`, the concentration for total growth inhibition (TGI) with SF-295 CNS, in the experiment on DU-145 prostate, in the experiment with OVCAR-3 ovarian, in the experiment on SF-539 CNS, with K-562 leukemia and with RXF 393 renal was above 100 µM in each case. The concentration for total growth inhibition (TGI) with HCT-15 colon, in the experiment with NCI-H460 lung, in the experiment on SW-620 colon and with SNB-75 CNS was above 100 µM throughout.

For orientation: TGI means the concentration giving total growth inhibition. A higher TGI goes with less potent growth arrest. A word on the GI50: it is the concentration giving 50% growth inhibition.
